This is an account of results in patent EP0337441A2, “Expression of a functional form of a herpes virus DNA polymerase in yeast” (E.R. Squibb & Sons, Inc., priority 1988, dated 1989).

Read-outs that look alike come from different tables or passages of the source.

The target of test [1] is T1, HSV-1 DNA pol (Human herpesvirus 1, UniProt P04292). The test is described as follows: HSV DNA pol assay (high salt, 100 mM ammonium sulfate), 3H-TTP incorporation into nicked calf thymus DNA by cell extracts. The arrangement: made in house; host or cells: Saccharomyces cerevisiae Y294 carrying pMH202 (strain Y-MH202), galactose-induced, crude cell lysate. Type of test: biochemical. To be noted: HSV pol assay conditions. Here is the method:
In order to determine whether HSV pol protein was expressed and whether HSV specific DNA polymerase activity could be detected in yeast cells containing pMH202, the following experiments were performed. This description represents only one example of how such a strain can be constructed. Other examples may include a different yeast host strain and/or a different transformation procedure. Yeast cells (Y 294) were transformed with pMH101 (control plasmid without the HSV pol gene) or pMH202 (expression plasmid with HSV pol gene) DNAs. Transformation of the yeast cells was accomplished using the method of J. D. Beggs (1978. Nature 275: 104 - 109). The transformants were selected for uracil prototrophy by growth on minimal media containing 182.2 g/L sorbitol; 20 g/L glucose; 6.7 g/L yeast nitrogen base (Difco) supplemented with 30µg/ml leucine, 20µg/ml histidine, 20µg/ml tryptophan and 2% glucose but lacking uracil. One colony of each type (designated Y-MH101 or Y-MH202, respectively) was selected at random for further analysis. 100 ml overnight cultures were grown from these two strains in minimal media (0.7% yeast nitrogen base [Difco]) containing the required amino acids as described above and 2% raffinose. […] The extent of lysis was monitored by microscopy. […]
(§1) The lysates were also analyzed for DNA polymerase enzyme activity. […]

In a further test the target is yeast alpha DNA pol (Saccharomyces cerevisiae, UniProt P13382). In words: Yeast DNA polymerase (alpha pol) assay (low salt), 3H-TTP incorporation by yeast cell extracts. The following applies: for low salt DNA pol activity, sensitivity to drug (result in words): all of the extracts tested (also HSV-infected HeLa extract), at the concentration tested; for inhibition at 5.3 µM: aphidicolin 5.3 µM. Type of test: biochemical, Saccharomyces cerevesiae. Here is the method: (§2) In order to determine whether HSV pol protein was expressed and whether HSV specific DNA polymerase activity could be detected in yeast cells containing pMH202, the following experiments were performed. This description represents only one example of how such a strain can be constructed. Other examples may include a different yeast host strain and/or a different transformation procedure. Yeast cells (Y 294) were transformed with pMH101 (control plasmid without the HSV pol gene) or pMH202 (expression plasmid with HSV pol gene) DNAs. Transformation of the yeast cells was accomplished using the method of J. D. Beggs (1978. Nature 275: 104 - 109). The transformants were selected for uracil prototrophy by growth on minimal media containing 182.2 g/L sorbitol; 20 g/L glucose; 6.7 g/L yeast nitrogen base (Difco) supplemented with 30µg/ml leucine, 20µg/ml histidine, 20µg/ml tryptophan and 2% glucose but lacking uracil. One colony of each type (designated Y-MH101 or Y-MH202, respectively) was selected at random for further analysis. 100 ml overnight cultures were grown from these two strains in minimal media (0.7% yeast nitrogen base [Difco]) containing the required amino acids as described above and 2% raffinose. The following day, cultures were divided in half, cells were pelleted, resuspended in 100 ml of fresh media containing either 2% raffinose or 2% galactose and again grown overnight. The following day, the four cultures were pelleted at 4°C. Cell lysates were prepared as described by Johnson et al. (1985 . Cell 43:369 - 377). This represents only one example of how such a lysate may be prepared. Cell pellets were resuspended in 1 ml 50 mM Tris-HCl, pH 8.0; 50mM NaCl, 1% dimethylsulfoxide; 10% glycerol; 5mM beta-mercaptoethanol; 10mM EDTA; 2mM benzamidine; and 1mM phenylmethylsulfonylfluoride (PMSF). Lysis was achieved by vortexing the cells 15 - 20 times for 1 minute in the presence of an equal volume of acid-washed glass beads. The extent of lysis was monitored by microscopy. The lysed extracts were transferred to 1.5 ml microfuge tubes and centrifuged for 10 minutes at 12,000 x g. Extracts were stored at -80°C in 15% glycerol until use. The final protein concentration of each of the extracts was between 5 - 6 mg/ml.
The lysates were also analyzed for DNA polymerase enzyme activity. Each of the four yeast cell extracts was assayed for DNA pol activity under two sets of conditions. The yeast DNA pol assay conditions were designed to detect the alpha polymerase which should be present in all lysates. The HSV DNA pol assay conditions were chosen to detect HSV specific DNA pol activity which is enhanced by high salt (100mM ammonium sulfate). In contrast, the yeast alpha DNA pol is inhibited under these salt conditions. The assay for yeast DNA polymerase was performed essentially as described in Celniker and Campbell (1982. Cell 31:201 - 213), but without addition of ribonucleotide triphosphates. Reaction mixtures contained 5µl of enzyme extract (25 - 30 µg of protein) in 10mM Tris-HCl, pH 7.5; 10 mM MgCl₂; 10 mM (NH₄)₂SO₄; 0.1 mM DTT; 100 µM each of dATP, dCTP, dGTP; 100 µM ³H-TTP (10 cpm/pmol); 40 µg/ml nicked calf thymus DNA; and 2 mM spermidine in a final volume of 50 µl. The assay for the HSV-1 DNA pol was performed as follows. […] The filters were washed thoroughly, twice using 1N HCl and once using 95% ethanol; air dried and quantitated by scintillation counting using a LKB 1214 Rackbeta counter at 63% efficiency. […]

The target of test [2] is T1, HSV-1 DNA pol. The test is described as follows: HSV DNA pol assay (high salt, 100 mM ammonium sulfate), 3H-TTP incorporation into nicked calf thymus DNA by cell extracts. Type of test: biochemical. To be noted: for high salt activity in the Y-MH202 yeast cell extracts (result in words): Y-MH202 extract, 23 µM ACVTP, 5.3 µM aphidicolin. As for the experimental part:
as §2
Infected cell extracts were prepared essentially as described by Karkas et al. (1986. J. Med. Chem. 29:842 - 848). HeLa S3 cells were infected with HSV-1 KOS at a multiplicity of infection of 10 plaque forming units per cell and harvested at 16 hours post infection. […]
as §1

T1 sequence (P04292 whole entry): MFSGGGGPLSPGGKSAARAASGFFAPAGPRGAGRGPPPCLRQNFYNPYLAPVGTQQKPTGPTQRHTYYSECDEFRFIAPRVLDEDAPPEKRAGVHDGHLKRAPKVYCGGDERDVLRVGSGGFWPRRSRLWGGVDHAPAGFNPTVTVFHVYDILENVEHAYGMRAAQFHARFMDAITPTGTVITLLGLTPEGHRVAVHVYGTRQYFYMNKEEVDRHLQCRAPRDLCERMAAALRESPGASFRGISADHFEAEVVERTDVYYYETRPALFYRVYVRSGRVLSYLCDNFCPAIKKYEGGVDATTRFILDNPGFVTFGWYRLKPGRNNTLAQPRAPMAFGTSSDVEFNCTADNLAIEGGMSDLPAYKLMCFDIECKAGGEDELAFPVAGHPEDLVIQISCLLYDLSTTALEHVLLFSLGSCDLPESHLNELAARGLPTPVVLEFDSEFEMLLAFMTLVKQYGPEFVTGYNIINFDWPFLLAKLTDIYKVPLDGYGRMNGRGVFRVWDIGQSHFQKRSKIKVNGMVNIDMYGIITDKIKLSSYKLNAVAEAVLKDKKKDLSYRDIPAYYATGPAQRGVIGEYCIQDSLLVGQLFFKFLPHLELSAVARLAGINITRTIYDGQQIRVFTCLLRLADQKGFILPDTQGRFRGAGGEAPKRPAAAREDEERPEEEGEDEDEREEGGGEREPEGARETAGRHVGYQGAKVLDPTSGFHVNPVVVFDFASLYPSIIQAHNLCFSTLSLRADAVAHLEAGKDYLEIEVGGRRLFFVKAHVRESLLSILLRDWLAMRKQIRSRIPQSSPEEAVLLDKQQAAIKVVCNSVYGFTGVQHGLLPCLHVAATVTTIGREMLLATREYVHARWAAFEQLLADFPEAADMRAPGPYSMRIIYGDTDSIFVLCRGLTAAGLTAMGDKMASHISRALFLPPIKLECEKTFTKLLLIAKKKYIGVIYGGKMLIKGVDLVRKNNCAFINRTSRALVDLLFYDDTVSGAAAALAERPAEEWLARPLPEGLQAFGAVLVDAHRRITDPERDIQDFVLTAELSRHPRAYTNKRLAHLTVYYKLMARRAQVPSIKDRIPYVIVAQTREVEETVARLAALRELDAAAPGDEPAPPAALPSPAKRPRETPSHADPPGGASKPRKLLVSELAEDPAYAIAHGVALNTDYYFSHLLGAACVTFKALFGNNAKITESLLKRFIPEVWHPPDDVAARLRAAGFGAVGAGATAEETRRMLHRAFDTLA
Chain of yeast alpha DNA pol (P13382 2-1468): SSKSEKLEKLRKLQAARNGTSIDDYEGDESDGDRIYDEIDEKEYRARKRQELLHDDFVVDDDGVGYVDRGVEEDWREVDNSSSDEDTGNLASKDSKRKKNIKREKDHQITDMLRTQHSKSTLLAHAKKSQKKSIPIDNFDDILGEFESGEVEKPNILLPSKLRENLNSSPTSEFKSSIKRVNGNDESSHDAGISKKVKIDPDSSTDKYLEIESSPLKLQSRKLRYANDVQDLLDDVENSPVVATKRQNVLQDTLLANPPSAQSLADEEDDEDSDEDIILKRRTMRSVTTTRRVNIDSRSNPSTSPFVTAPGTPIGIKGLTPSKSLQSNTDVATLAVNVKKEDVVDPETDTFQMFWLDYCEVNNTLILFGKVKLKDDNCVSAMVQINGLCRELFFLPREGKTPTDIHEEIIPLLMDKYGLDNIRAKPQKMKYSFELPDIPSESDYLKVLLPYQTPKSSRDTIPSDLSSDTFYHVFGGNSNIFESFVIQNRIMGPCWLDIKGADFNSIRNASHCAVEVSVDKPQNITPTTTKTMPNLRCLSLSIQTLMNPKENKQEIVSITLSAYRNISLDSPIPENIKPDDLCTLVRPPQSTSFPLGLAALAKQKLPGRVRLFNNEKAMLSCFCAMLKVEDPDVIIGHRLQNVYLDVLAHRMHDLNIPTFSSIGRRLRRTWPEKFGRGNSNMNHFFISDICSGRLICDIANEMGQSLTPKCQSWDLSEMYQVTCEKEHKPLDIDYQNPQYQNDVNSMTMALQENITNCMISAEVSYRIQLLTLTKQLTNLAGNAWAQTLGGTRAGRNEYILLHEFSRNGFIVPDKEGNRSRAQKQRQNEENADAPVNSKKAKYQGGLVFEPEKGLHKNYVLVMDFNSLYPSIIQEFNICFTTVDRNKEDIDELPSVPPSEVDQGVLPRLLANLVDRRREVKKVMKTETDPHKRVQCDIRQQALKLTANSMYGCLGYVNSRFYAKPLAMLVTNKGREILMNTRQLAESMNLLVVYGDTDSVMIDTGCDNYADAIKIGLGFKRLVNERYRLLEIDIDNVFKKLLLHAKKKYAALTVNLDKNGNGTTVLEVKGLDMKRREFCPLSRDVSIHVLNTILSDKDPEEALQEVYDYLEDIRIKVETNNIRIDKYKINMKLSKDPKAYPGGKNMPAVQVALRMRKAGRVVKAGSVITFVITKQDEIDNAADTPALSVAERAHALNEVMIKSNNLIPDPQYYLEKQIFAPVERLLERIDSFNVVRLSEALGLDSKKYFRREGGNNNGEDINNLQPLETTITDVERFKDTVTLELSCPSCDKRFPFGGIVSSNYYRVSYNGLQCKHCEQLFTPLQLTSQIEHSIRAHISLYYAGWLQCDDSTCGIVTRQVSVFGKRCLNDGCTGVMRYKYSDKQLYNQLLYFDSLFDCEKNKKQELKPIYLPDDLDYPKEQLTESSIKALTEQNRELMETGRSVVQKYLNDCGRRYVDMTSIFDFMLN

One may read the inhibition as the change of the read-out against control, counted positive when it falls. In the case of `C[C@@]1(CO)[C@H](O)CC[C@@]2(C)[C@H]1CC[C@H]1C[C@@H]3C[C@@]12CC[C@]3(O)CO` [Aphidicolin, aphidicolin], the inhibition at 5.3 µM at HSV-1 DNA pol [1] (read-out: % Inhibition by Drug Aphidicolin, HSV-infected HeLa cells extract, aphidicolin 5.3 µM) was determined as 90%; at yeast alpha DNA pol (read-out: % Inhibition by Drug Aphidicolin, Yeast Control (Y-MH101, galactose) extract, alpha pol assay conditions), 88%; at yeast alpha DNA pol (read-out: % Inhibition by Drug Aphidicolin, Yeast Expressor (Y-MH202, galactose) extract, alpha pol assay conditions), 80%; at HSV-1 DNA pol [2] (read-out: % Inhibition by Drug Aphidicolin, Yeast Expressor (Y-MH202, galactose) extract, HSV pol assay conditions, aphidicolin 5.3 µM), 94%. In addition, the “low salt DNA pol activity, sensitivity to drug (result in words)” value at yeast alpha DNA pol is on record as “sensitive”. In addition, the “high salt activity in the Y-MH202 yeast cell extracts (result in words)” value on HSV-1 DNA pol [2] was “inhibited”.

For `Nc1nc2c(ncn2COCCOP(=O)(O)OP(=O)(O)OP(=O)(O)O)c(=O)[nH]1` [ACVTP, acyclovir triphosphate], the inhibition at 23 µM at HSV-1 DNA pol [1] (HSV-infected HeLa cells extract, ACVTP 23 µM, read-out: % Inhibition by Drug ACVTP) was found to be 89%; at yeast alpha DNA pol (Yeast Control (Y-MH101, galactose) extract, alpha pol assay conditions, ACVTP 23 µM, 0% means relative activity ≥1.0, read-out: % Inhibition by Drug ACVTP), 0%; at HSV-1 DNA pol [2] (Yeast Expressor (Y-MH202, galactose) extract, HSV pol assay conditions, ACVTP 23 µM, read-out: % Inhibition by Drug ACVTP), 93%. Further, the “low salt DNA pol activity, sensitivity to drug (result in words)” value on yeast alpha DNA pol is reported as “not sensitive”. In addition, the “high salt activity in the Y-MH202 yeast cell extracts (result in words)” value at HSV-1 DNA pol [2] was “inhibited”.
